Entries after “also recorded” stand apart in the source; their conditions may differ. Where no end group is shown, it is not given here.

For one data set, the system named is BHK-21 cells. Put plainly: Cell proliferation assay, Epi-1 alone on BHK-21 cells. The format is cell-based, baby hamster. Particulars: Epi up to 1 μg/ml, 48 h, n=3. An excerpt:
Baby hamster kidney (BHK)-21 cells were purchased and maintained as per American Type Culture Collection (ATCC no. CCL10, Manassas, Va., USA) instructions. Female C3H/HeN mice, purchased from the National Laboratory Animal Breeding and Research Center (Taiwan) and BioLASCO (Taipei, Taiwan), were housed at the Laboratory Animal Facility, National Taiwan Ocean University NTOU; Keelung, Taiwan). Mice were maintained in pathogen-free sterile isolators according to institutional guidelines, and all food, water, caging, and bedding were sterilized before use. All procedures were approved by the Animal Care and Use Committee of NTOU. The 50% lethal dose (LD50) of JEV in female C3H/HeN mice was determined. The Beijing-1 JEV strain was maintained in suckling mouse brains as previously described.
BHK-21 cells in 48-well plates were assayed with CellTiter 96 Aqueous One Solution (Promega, Madison, Wis., USA) following the vendor's instructions. Epi-1 was administered together with Japanese encephalitis virus (JEV) as co-treatment; Epi-1 was administered 24 h prior to (prophylaxis) or after (curative) the JEV inoculation. After blank value subtraction, the percentage survival against control cells was calculated. […]
The effects of Epi-1 on JEV in BHK-21 cells were studied. […] At 48 h, cell viability of JEV infection was determined (FIG. 1a). […]

A short description of data set [1]: Toxicity of Epi-1 alone injected i.p. in adult mice. The method, then:
Six-week-old adult C3H/HeN mice were randomly divided into five groups of 10 mice each. […] After 14 days, a re-challenge was carried out on surviving mice with 50× the LD50 of JEV. Mouse survival and activity were monitored on a daily basis for up to 25 days after the primary injection. For serological studies, serum was collected on days 4, 7, and 21 after treatment. A similar approach was followed to test immunized mice.
JEV was co-injected with or without Epi-1 at various dosages (50, 100, and 200 μg/ml) into adult mice and subsequently boosted (a second JEV challenge without Epi-1) on day 14. The survival rate of mice was recorded for 25 days.

For “GFIFHIIKGLFHAGKMIHGLV [Epi-1, epinecidin-1]”, the cell viability entry with BHK-21 cells is “did not affect cell viability; also recorded: no detectable cytotoxicity”. Moreover, in data set [1] (200 μg/ml Epi-1 alone i.p., n=10), the survival and behaviour result was “all mice survived and behaved normally”. The toxic effects entry in data set [1] (Epi-1 alone, adult mice) is listed as “No toxic effects were noted; also recorded: no detectable cytotoxicity”.

Values taken from patent publication US8361483B2, “Epinecidin-1 as a vaccine adjuvant for enhancing immune responses” (priority 2011, dated 2013).
